The target of the test is T1, ACSL4 (long-chain acyl-CoA synthetase 4) (Rattus norvegicus, UniProt O35547).
T1 construct: purified recombinant rat FLAG-ACSL4
Nature of the test: ACSL enzyme activity assay with […] palmitate, scintillation counting. It is filed as biochemical.

T1 sequence (O35547 whole entry): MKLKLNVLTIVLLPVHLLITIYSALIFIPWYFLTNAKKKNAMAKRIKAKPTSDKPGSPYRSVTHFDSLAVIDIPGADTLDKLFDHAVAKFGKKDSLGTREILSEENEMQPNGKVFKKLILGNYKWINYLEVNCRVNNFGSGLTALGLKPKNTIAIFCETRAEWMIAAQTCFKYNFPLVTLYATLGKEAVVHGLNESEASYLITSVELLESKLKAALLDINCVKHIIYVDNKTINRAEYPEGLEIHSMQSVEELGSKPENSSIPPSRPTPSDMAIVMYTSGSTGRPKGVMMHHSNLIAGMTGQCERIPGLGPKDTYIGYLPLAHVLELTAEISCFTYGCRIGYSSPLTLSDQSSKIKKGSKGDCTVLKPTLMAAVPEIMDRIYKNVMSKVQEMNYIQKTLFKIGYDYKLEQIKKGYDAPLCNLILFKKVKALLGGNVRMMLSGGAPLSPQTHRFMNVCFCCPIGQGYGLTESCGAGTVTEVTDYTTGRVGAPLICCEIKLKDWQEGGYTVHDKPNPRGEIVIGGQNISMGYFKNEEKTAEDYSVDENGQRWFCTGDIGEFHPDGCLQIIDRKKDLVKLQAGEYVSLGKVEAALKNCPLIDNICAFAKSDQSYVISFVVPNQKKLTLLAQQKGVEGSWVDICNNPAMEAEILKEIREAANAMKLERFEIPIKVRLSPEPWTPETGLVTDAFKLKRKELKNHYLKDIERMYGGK

On to `CCc1ccc(CCOc2ccc(C[C@H]3SC(=O)NC3=O)cc2)nc1` [PXL065], for which the half-maximal inhibitory concentration (IC50) was determined as 2120 nM. For `CCc1ccc(CCOc2ccc(CC3SC(=O)NC3=O)cc2)nc1` (racemic) [pioglitazone] the value was 2080 nM.

What is called IC50 is the concentration at which inhibition is half-maximal. A higher IC50 goes with lower potency.

These data come from paper PMC9545763, “Therapeutic potential of deuterium‐stabilized (R)‐pioglitazone—PXL065—for X‐linked adrenoleukodystrophy” (Journal of Inherited Metabolic Disease, 2022).
